# Patent US6500842B1, “8-hydroxy-7-substituted quinolines as anti-viral agents” (Pharmacia & Upjohn Company, priority 1996, dated 2002)
# “And” between values parts separate entries of the source, which are not always exact repeats. Equal entries are not always repeated. Where two headings read alike, the source gives them in different places.
# Tests used:
# [1] = molecular target: T1, CMV polymerase (Human cytomegalovirus, UniProt P08546); assay: modified version of the HCMV polymerase assay (100% DMSO dilution, DTT, different enzyme lot); type: biochemical
# T1 construct: made in house; host or cells: recombinant baculovirus-infected SF-9 cells
# T1 sequence (P08546 whole entry): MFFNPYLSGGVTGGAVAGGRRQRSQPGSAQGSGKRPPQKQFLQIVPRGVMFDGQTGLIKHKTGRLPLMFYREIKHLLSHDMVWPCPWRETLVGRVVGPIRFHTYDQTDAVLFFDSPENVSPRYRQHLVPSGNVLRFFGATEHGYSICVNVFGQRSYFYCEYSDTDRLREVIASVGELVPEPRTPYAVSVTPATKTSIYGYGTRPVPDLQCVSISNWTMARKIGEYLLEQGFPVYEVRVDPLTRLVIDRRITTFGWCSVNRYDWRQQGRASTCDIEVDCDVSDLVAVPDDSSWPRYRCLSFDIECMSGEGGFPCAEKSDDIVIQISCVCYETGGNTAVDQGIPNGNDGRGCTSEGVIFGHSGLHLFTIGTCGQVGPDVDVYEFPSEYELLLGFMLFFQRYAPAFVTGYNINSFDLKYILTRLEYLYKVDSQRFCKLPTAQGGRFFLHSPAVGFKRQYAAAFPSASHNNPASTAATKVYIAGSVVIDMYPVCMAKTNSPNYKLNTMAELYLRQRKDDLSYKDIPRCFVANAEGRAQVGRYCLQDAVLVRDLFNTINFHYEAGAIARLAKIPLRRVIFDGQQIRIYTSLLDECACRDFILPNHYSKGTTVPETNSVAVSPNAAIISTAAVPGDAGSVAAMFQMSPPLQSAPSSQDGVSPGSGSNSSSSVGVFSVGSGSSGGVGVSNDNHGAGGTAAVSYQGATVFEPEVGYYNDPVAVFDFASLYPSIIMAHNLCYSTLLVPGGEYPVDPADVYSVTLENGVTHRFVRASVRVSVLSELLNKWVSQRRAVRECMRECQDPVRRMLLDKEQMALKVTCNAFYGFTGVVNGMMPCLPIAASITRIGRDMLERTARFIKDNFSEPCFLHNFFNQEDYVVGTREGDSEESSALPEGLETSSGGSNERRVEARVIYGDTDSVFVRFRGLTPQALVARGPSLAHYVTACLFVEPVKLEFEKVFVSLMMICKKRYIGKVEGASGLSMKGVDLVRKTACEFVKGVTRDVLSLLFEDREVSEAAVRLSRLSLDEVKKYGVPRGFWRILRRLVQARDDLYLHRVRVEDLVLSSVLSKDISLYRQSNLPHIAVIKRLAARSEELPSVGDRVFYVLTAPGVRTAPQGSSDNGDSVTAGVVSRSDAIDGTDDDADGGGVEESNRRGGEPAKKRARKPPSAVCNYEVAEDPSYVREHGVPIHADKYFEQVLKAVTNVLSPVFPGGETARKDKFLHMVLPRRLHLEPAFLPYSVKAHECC
# Description: (§1) The HCMV polymerase assay is performed using a scintillation proximity assay (SPA) as described in several references, such as N. D. Cook, et al., Pharmaceutical Manufacturing International, pages 49-53 (1992); K. Takeuchi, Laboratory Practice, September issue (1992); U.S. Pat. No. 4,568,649 (1986); which are incorporated by reference herein. Reactions are performed in 96-well plates. The assay is conducted in 100 μl volume with 5.4 mM HEPES (pH 7.5), 11.7 mM KCl, 4.5 mM MgCl2, 0.36 mg/ml BSA, and 90 nM ^3H-dTTP. Assays are run with and without CHAPS, (3-[(3-Cholamidopropyl)-dimethylammonio]-1-propane-sulfonate) at a final concentration of 2 mM. HCMV is diluted in enzyme dilution buffer containing 50% glycerol, 250 mM NaCl, 10 mM HEPES (pH 7.5), 100 pg/ml BSA, and 0.01% sodium azide. The HCMV polymerase, which is expressed in recombinant baculovirus-infected SF-9 cells and purified according to literature procedures, is added at 10% (or 10 μl) of the final reaction volume, i.e., 100 μl. Compounds are diluted in 50% DMSO and 10 μl are added to each well. Control wells contain an equivalent concentration of DMSO. Unless noted otherwise, reactions are initiated via the addition of 6 nM biotinylated poly(dA)-oligo(dT) template/primer to reaction mixtures containing the enzyme, substrate, and compounds of interest. Plates are incubated in a 25° C. of 37° C. H2O bath and terminated via the addition of 40 μl/reaction of 0.5 M EDTA (pH 8) per well. Reactions are terminated within the time-frame during which substrate incorporation is linear and varied depending upon the enzyme and conditions used, i.e., 30 min. for HCMV polymerase. Ten μl of streptavidin-SPA beads (20 mg/ml in PBS/10% glycerol) are added following termination of the reaction. Plates are incubated 10 min. at 37° C., then equilibrated to room temperature, and counted on a Packard Topcount. Linear regressions are performed and IC50's are calculated using computer software. Results of the testing of compounds of the present invention in this assay are shown in Tables 1, 2, 5, 9, 10, 11, 13 (except for the last compound which was tested under modified conditions) and 14 below.
# A modified version of the above HCMV polymerase assay is performed as described above, but with the following changes: Compounds are diluted in 100% DMSO until final dilution into assay buffer. In the previous assay, compounds are diluted in 50% DMSO. 4.5 mM dithiotherotol (DTT) is added to the polymerase buffer.
# [2] = molecular target: T2, HCMV polymerase (Human cytomegalovirus, UniProt P08546); assay: HCMV polymerase assay (scintillation proximity assay); type: biochemical
# T2 construct: made in house; host or cells: recombinant baculovirus-infected SF-9 cells
# T2 sequence (P08546 whole entry): as above
# Description: as §1
# [3] = Polymerase CMV, Table 7, read-out: Antiviral Selective Polymerase IC50 Values - IC50
# [4] = Table 9, read-out: CMV pol Assay- IC50
# [5] = Table 10, CMV pol Assay, read-out: IC50
# [6] = pol type CMV, Table 2, read-out: IC50
# [7] = Table 11, read-out: CMV pol Assay IC50
compound,measurement,setting,value
CC(C)c1ccc(S(=O)(=O)NCCCCCNC(=O)c2ccc3cccnc3c2O)cc1 [drawing 128],IC50,[1]; [3],< 3.1 µM
Cc1ccc2c(Cl)cc(C(=O)NCCSc3ccccc3)c(O)c2n1 [drawing 127],IC50,[1]; [3],42.8 µM
"O=S(=O)(NCc1ccccc1)c1cc(F)c2cccnc2c1O [Example 67, 5-Flouro-8-hydroxy-N-(phenylmethyl)-7-quinolinesulfonamide]",% Inhibition,"[1]; Concentration 3.13 μM, Table 6",13%
same,% Inhibition,"[1]; Concentration 6.25 μM, Table 6",23%
same,% Inhibition,"[1]; Concentration 12.5 μM, Table 6",25%
same,% Inhibition,"[1]; Concentration 25 μM, Table 6",41%
same,% Inhibition,"[1]; Concentration 50 μM, Table 6",76%
same,% Inhibition,"[1]; Concentration 100 μM, Table 6",86%
same,% Inhibition,"[1]; Concentration 200 μM, Table 6",94%
same,IC50,"[1]; Table 6, read-out: IC50",23.6 µM
O=C(NCCCc1ccccc1)c1ccc2ccc(/C=C/c3ccccc3)nc2c1O,IC50,"[1]; Table 13, last compound, tested under modified conditions, read-out: IC50",5.1 µM
O=C(c1ccc2cccnc2c1O)N1CCN(c2ccc(Cl)c(Cl)c2)CC1,IC50,"[2]; Table 14, read-out: IC50",14 µM
O=C(NCCSc1ccccc1)c1ccc2cccnc2c1O,IC50,[2]; [4],9.2 µM
N#Cc1ccc(NC(=O)c2ccc3cccnc3c2O)cc1 [drawing 210],IC50,[2]; [5],> 100 µM
O=C(NCc1ccc(F)cc1Cl)c1ccc2cccnc2c1O,IC50,"[2]; Table 14, read-out: IC50",28 µM
C[C@H](NC(=O)c1ccc2cccnc2c1O)c1cccc2ccccc12,IC50,[2]; [4],3 µM
O=C(Nc1ccc([N+](=O)[O-])cc1)c1ccc2cccnc2c1O,IC50,[2]; [5],48.4 µM
Cc1cc(C(F)(F)F)nc2c(O)c(C(=O)NCc3ccc(Cl)cc3)ccc12,inhibition at 100 µM,"[2]; Table 13, 100 μM",35%
O=C(NCCc1ccccc1Cl)c1ccc2cccnc2c1O,IC50,"[2]; Table 14, read-out: IC50",26 µM
O=C(Nc1ccccc1Cl)c1ccc2cccnc2c1O,IC50,[2]; [5],9.4 µM
"O=S(=O)(NCc1ccccc1)c1cc(Cl)c2cccnc2c1O [Example 22, 5-Chloro-8-hydrxoy-N-(phenylmehtyl)-7-quinolinesulfonamide]",% Inhib,"[2]; Conc 1.00e−004 M, Table 2",98.2% and 99.7%
same,% Inhib,"[2]; Conc 1.30e−005 M, Table 2",68.9% and 78.3%
same,% Inhib,"[2]; Conc 2.50e−005 M, Table 2",90.7% and 95.2%
same,% Inhib,"[2]; Conc 5.00e−005 M, Table 2",96.7% and 98.6%
same,% Inhib,"[2]; Conc 6.25e−006 M, Table 2",33.3% and 51.5%
same,IC50,[2]; [6],8.6 µM and 4.5 µM
Cc1ccc(F)cc1NC(=O)c1ccc2cccnc2c1O [drawing 282],IC50,[2]; [5],6.6 µM
O=C(NCCSCc1c(F)cccc1Cl)c1ccc2cccnc2c1O,IC50,[2]; [4],9.6 µM
O=C(Nc1cccc2ccccc12)c1ccc2cccnc2c1O,IC50,[2]; [5],4.9 µM
C[C@H](NC(=O)c1ccc2cccnc2c1O)[C@H](O)c1ccccc1,IC50,"[2]; Table 14, read-out: IC50",41 µM
CCOC(=O)C(Cc1c[nH]c2ccccc12)NC(=O)c1ccc2cccnc2c1O (stereo not shown),IC50,[2]; [4],24.6 µM and 29.4 µM
O=C(NC1=NC(=O)C(c2cccc([N+](=O)[O-])c2)S1)c1ccc2cccnc2c1O (stereo not shown),IC50,"[2]; Table 13, read-out: IC50",5.2 µM
O=C(N[C@H](CO)Cc1ccccc1)c1ccc2cccnc2c1O,inhibition at 25 µM,"[2]; Table 14, 25 uM",93%
COc1cc(CNC(=O)c2ccc3cccnc3c2O)ccc1O,IC50,[2]; [4],19.3 µM
O=C(NCCSc1ccccc1)c1ccc2ccc(C(F)(F)F)nc2c1O,IC50,"[2]; Table 13, read-out: IC50",41.6 µM
O=C(NC1(CO)CCCC1)c1ccc2cccnc2c1O,IC50,[2]; [4],6.6 µM
O=C(Nc1cccc(F)c1)c1ccc2cccnc2c1O,IC50,[2]; [5],16.9 µM
CCCCCCCCCNC(=O)c1ccc2cccnc2c1O,IC50,[2]; [4],2.2 µM
Cc1ccc2c(Cl)cc(S(=O)(=O)NCc3ccc(F)cc3)c(O)c2n1 [Example 30],% Inhib,"[2]; Conc 1.00e−004 M, Table 2",97%
same,% Inhib,"[2]; Conc 1.30e−005 M, Table 2",73.4%
same,% Inhib,"[2]; Conc 2.50e−005 M, Table 2",87.5%
same,% Inhib,"[2]; Conc 3.13e−006 M, Table 2",42.6%
same,% Inhib,"[2]; Conc 5.00e−005 M, Table 2",95.4%
same,% Inhib,"[2]; Conc 6.25e−006 M, Table 2",59.9%
same,IC50,[2]; [6],4.3 µM
Cc1ccc2c(Cl)cc(S(=O)(=O)NCCc3c[nH]c4ccccc34)c(O)c2n1 [Example 64],% Inhibition,"[1]; Concentration 3.13 μM, Table 6",16%
same,% Inhibition,"[1]; Concentration 6.25 μM, Table 6",25%
same,% Inhibition,"[1]; Concentration 12.5 μM, Table 6",25%
same,% Inhibition,"[1]; Concentration 25 μM, Table 6",46%
same,% Inhibition,"[1]; Concentration 50 μM, Table 6",75%
same,% Inhibition,"[1]; Concentration 100 μM, Table 6",58%
same,% Inhibition,"[1]; Concentration 200 μM, Table 6",84%
same,IC50,"[1]; Table 6, read-out: IC50",29.8 µM
C[C@@H](NC(=O)c1ccc2cccnc2c1O)c1ccc(Br)cc1,IC50,[2]; [4],4.6 µM
O=C(NCCc1ccc(Br)cc1)c1ccc2cccnc2c1O,IC50,[2]; [4],5 µM
Cc1noc(NS(=O)(=O)c2ccc(NC(=O)c3ccc4cccnc4c3O)cc2)c1C,IC50,[2]; [5],90 µM
O=C(Nc1ccc2c(c1)OCO2)c1ccc2cccnc2c1O,IC50,[2]; [5],16.4 µM
O=C(Nc1cccc(OCc2ccccc2)c1)c1ccc2cccnc2c1O,IC50,[2]; [5],2.9 µM
O=C(NCc1ccc(Cl)c(Cl)c1)c1ccc2cccnc2c1O,IC50,[2]; [4],5.6 µM
O=C(NCc1cc(Cl)cc(Cl)c1)c1ccc2cccnc2c1O,IC50,"[2]; Table 14, read-out: IC50",27 µM
O=C(Nc1ccc2[nH]ccc2c1)c1ccc2cccnc2c1O,IC50,[2]; [5],13.6 µM
O=C(Nc1ccc2c(C(F)(F)F)cc(=O)oc2c1)c1ccc2cccnc2c1O,IC50,"[2]; IC50 uM, Table 10, CMV pol Assay",9.5 µM
N#Cc1ccccc1NC(=O)c1ccc2cccnc2c1O,IC50,[2]; [5],> 50 µM
CCc1ccccc1NC(=O)c1ccc2cccnc2c1O,IC50,[2]; [5],7.3 µM
O=C(Nc1ccc2cccc(O)c2n1)c1ccc2cccnc2c1O,IC50,[2]; [5],14.5 µM
Cc1ccc2ccc(C(=O)Nc3ccc(Cl)cc3)c(O)c2n1,IC50,"[2]; Table 13, read-out: IC50",7.6 µM
CCCCCCCCCCCNC(=O)c1ccc2cccnc2c1O,IC50,[2]; [4],< 3.1 µM
O=C(Nc1cccc(I)c1)c1ccc2cccnc2c1O,IC50,[2]; [5],5.9 µM
O=C(Nc1cccc(Cl)c1)c1ccc2cccnc2c1O,IC50,[2]; [5],1.7 µM
O=C(NCc1ccc(Cl)cc1)c1ccc2cccnc2c1O [drawing 169],IC50,[2]; [4],8.1 µM
O=C(Nc1nnc(C(F)(F)F)s1)c1ccc2cccnc2c1O [drawing 303],IC50,[2]; [7],71 µM
O=C(Nc1ccc(CO)cc1)c1ccc2cccnc2c1O,IC50,[2]; [5],3.7 µM
O=C(NCc1c(F)cccc1F)c1ccc2cccnc2c1O,IC50,[2]; [4],7.1 µM
CCCCCCNC(=O)c1ccc2cccnc2c1O,IC50,"[2]; Table 14, read-out: IC50",27 µM
O=C(Nc1nnc(Br)s1)c1ccc2cccnc2c1O [drawing 304],IC50,[2]; [7],93.2 µM
CC(C)(C)OC(=O)[C@H](Cc1c[nH]c2ccccc12)Nc1nnc(NC(=O)c2ccc3cccnc3c2O)s1,IC50,[2]; [7],< 3.1 µM
CCOC(=O)C(Cc1ccccc1)NC(=O)c1ccc2cccnc2c1O (stereo not shown),IC50,"[2]; Table 14, read-out: IC50",41 µM
O=C(Nc1nnc(NCc2ccc3c(c2)OCO3)s1)c1ccc2cccnc2c1O,IC50,[2]; [7],7.1 µM
O=C(NCc1cccs1)c1ccc2cccnc2c1O,IC50,"[2]; Table 14, read-out: IC50",34 µM
O=C(NCCCCc1ccccc1)c1ccc2cccnc2c1O,IC50,[2]; [4],7.4 µM
O=C(N[C@@H](CO)c1ccccc1)c1ccc2cccnc2c1O,IC50,"[2]; Table 14, read-out: IC50",19 µM
Cc1cccc(NC(=O)c2ccc3cccnc3c2O)c1 [drawing 224],IC50,[2]; [5],12.2 µM
O=C(NC(CO)C(O)c1ccccc1)c1ccc2cccnc2c1O (stereo not shown),IC50,"[2]; Table 14, read-out: IC50",14 µM
O=C(NCc1ccccc1C(F)(F)F)c1ccc2cccnc2c1O,IC50,[2]; [4],15.7 µM
Cc1cc(F)ccc1NC(=O)c1ccc2cccnc2c1O,IC50,[2]; [5],10.2 µM
O=C(Nc1ccccc1-c1ccccc1)c1ccc2cccnc2c1O,IC50,[2]; [5],4.3 µM
Cc1ccc(CCNC(=O)c2ccc3cccnc3c2O)cc1,IC50,[2]; [4],16.8 µM
CC(C)(C)OC(=O)[C@@H]1CCCN1c1nnc(NC(=O)c2ccc3cccnc3c2O)s1,IC50,[2]; [7],13.9 µM
